The test concerns mTOR (phospho-S6, pS6). The test can be described thus: In vitro mTOR inhibition by phospho-S6 (pS6) assay in LPS-stimulated splenocytes. Conditions: for IC50: read-out: Approximate IC50. Format: cell-based, C57BL/6 mice.
The mark [1] stands for this setting: half maximal inhibitory concentration of pS6 inhibition in IA/IE+ cells, splenocytes, phospho-S6 assay.
Setting [2] is: Mus musculus, Splenocyte, half maximal inhibitory concentration of pS6 inhibition in IA/IE+ cells, splenocytes, phospho-S6 assay.

The results in this text go back to US12642851B2, “Self-assembling nanoparticles” (Barinthus Biotherapeutics North America, Inc., priority 2022, dated 2026).

The term IC50 denotes the concentration at which inhibition is half-maximal.

Like-named read-outs stand apart in the source and are kept apart here. Some results are limits rather than exact numbers.

As for “OH-PEG24-VZQLQPFPQPELPYPQPQLPYPQPQPFR-SPVZX(DBCO-Ahx-ZV-Everolimus) [Compound 146]”, the IC50 under setting [1] stood at 74 nM. Also, the “pS6 IC50 compared to matched peptide antigen conjugates using an amide based linkage (Compound 143 and 145)” value (splenocytes, pS6 assay) is given as “more potent IC50”.
Regarding Torin-1-C3-COOH [Compound 123], the IC50 under setting [1] was greater than 500 nM.
Turning to `CO[C@H]1C[C@@H]2CC[C@@H](C)[C@@](O)(O2)C(=O)C(=O)N2CCCC[C@H]2C(=O)O[C@H]([C@H](C)C[C@@H]2CC[C@@H](OCCO)[C@H](OC)C2)CC(=O)[C@H](C)/C=C(\C)[C@@H](O)[C@@H](OC)C(=O)[C@H](C)C[C@H](C)/C=C/C=C/C=C/1C` [Everolimus], the IC50 (Mus musculus, Splenocyte) turned out to be 1 nM.
As to “OH-PEG24-VZQLQPFPQPELPYPQPQLPYPQPQPFR-SPVZK(DBCO-N3)-Everolimus [Compound 145]”, the IC50 under setting [1] came to 185 nM.
In the case of `CO[C@H]1CCOCC(=O)C(=O)N2CCCC[C@H]2C(=O)O[C@H]([C@H](C)C[C@@H]2CC[C@@H](OCCN=[N+]=[N-])[C@H](OC)C2)CC(=O)[C@H](C)/C=C(\C)[C@@H](O)[C@@H](OC)C(=O)[C@@H](C)C[C@H](C)/C=C/C=C/C=C/1C` [Compound 109, Everolimus-azide], under setting [2], the IC50 was found to be 1 nM. Also, for the setting “splenocytes, pS6 assay”, the “impact on IC50 (pS6) of conversion from Everolimus” value is “no impact on IC50”.
As to `CC(C)[C@H](N)C(=O)N[C@@H](CCCNC(N)=O)C(=O)NCCC(=O)N1Cc2ccccc2C#Cc2ccccc21` [Compound 124, Val-Cit-DBCO], under setting [2], the half-maximal inhibitory concentration (IC50) worked out at 150 nM.
For the molecule `CO[C@H]1C[C@@H]2CC[C@@H](C)[C@@](O)(O2)C(=O)C(=O)N2CCCC[C@H]2C(=O)O[C@H]([C@H](C)C[C@@H]2CC[C@@H](O)[C@H](OC)C2)CC(=O)[C@H](C)/C=C(\C)[C@@H](O)[C@@H](OC)C(=O)[C@H](C)C[C@H](C)/C=C/C=C/C=C/1C` [Rapamycin], under setting [2], the IC50 was 1 nM.
Turning to `CCCCNC(=O)[C@H](CCCNC(N)=O)NC(=O)[C@@H](NC(=O)CO[C@@H]1CC[C@@H](C[C@@H](C)[C@@H]2CC(=O)[C@H](C)/C=C(\C)[C@@H](O)[C@@H](OC)C(=O)[C@H](C)C[C@H](C)/C=C/C=C/C=C(\C)[C@@H](OC)CC3CC[C@@H](C)[C@@](O)(O3)C(=O)C(=O)N3CCCCC3C(=O)O2)C[C@H]1OC)C(C)C` (stereo partly drawn) [Compound 141, Everolimus -Val-Cit-nBu], under setting [2], the IC50 is 30 nM. Besides, the “fold reduction in IC50 potency (pS6) relative to Everolimus” value (splenocytes, pS6 assay) worked out at 30 fold.
In the case of “OH-PEG24-VZQLQPFPQPELPYPQPQLPYPQPQPFR-SPVZ(X-DBCO)-Ahx-WWK(ZV-Everolimus)WW [Compound 144]”, under setting [1], the IC50 turned out to be 13 nM. For the same molecule, under “splenocytes, pS6 assay”, the “pS6 IC50 compared to matched peptide antigen conjugates using an amide based linkage (Compound 143 and 145)” value is reported as “more potent IC50”.
On to `CCC(=O)N1CCN(c2ccc(-n3c(=O)ccc4cnc5ccc(-c6cnc7ccccc7c6)cc5c43)cc2C(F)(F)F)CC1` [Torin-1, reference compound], for which, under setting [1], the IC50 is […].
On to `CO[C@H]1CCOCC(=O)C(=O)N2CCCC[C@H]2C(=O)O[C@H]([C@H](C)C[C@@H]2CC[C@@H](OCCN)[C@H](OC)C2)CC(=O)[C@H](C)/C=C(\C)[C@@H](O)[C@@H](OC)C(=O)[C@@H](C)C[C@H](C)/C=C/C=C/C=C/1C` [Compound 108, Everolimus-amine], for which, under setting [2], the IC50 was determined as 10 nM. In addition, for the setting “splenocytes, pS6 assay”, the “fold reduction in IC50 potency (pS6) relative to Everolimus” value was determined as 10 fold.
As to `CC(C)[C@H](N)C(=O)N[C@@H](CCCNC(N)=O)C(=O)N1CCN(c2ccc(-n3c(=O)ccc4cnc5ccc(-c6cnc7ccccc7c6)cc5c43)cc2C(F)(F)F)CC1` [Compound 105, Torin-1-ZV], the IC50 under setting [2] was determined as 210 nM. Moreover, the “pS6 inhibition IC50 relative to Torin-1-piperazine (Compound 98)” value (splenocytes, pS6 assay) was “approximately equivalent”.
On to “OH-PEG24-VZQLQPFPQPELPYPQPQLPYPQPQPFR-SPVZ-(X DBCO)-Ahx-WWK(Everolimus)WW [Compound 143]”, for which the IC50 under setting [1] is 150 nM.
On to Everolimus -N3-DBCO-COOH [Compound 142], for which, under setting [1], the IC50 was determined as 16 nM. The “fold reduction in IC50 potency (pS6) relative to Everolimus” value (splenocytes, pS6 assay) is on record as 16 fold.
